Source: PubChem BioAssay AID1963427 (Molecular Pharmacology Branch, DTP, NCI, 2024)
One block for each molecule: values may come before it.

Test system: 317291-083-R-J1-PDC complex spheroid growth
Test: Anticancer human tumor 317291-083-R-J1-PDC patient-derived soft tissue sarcoma cell line growth inhibition [Asc]
Settings: for IC50: curve of first compound; for viability, T/C: stronger effect = lower value
Method in brief: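 Tumor cells were grown as multicellular spheroids with stromal HUVEC and mesenchymal stem cells and treated singly or in combination. Concentrations fell in half-log steps from the clinical Cmax, or from 10 microM where none was known.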

[1] = second compound 0.0316 µM, first compound 0.00316 µM
[2] = second compound 0.0316 µM, first compound 0.01 µM
[3] = second compound 0.0316 µM, first compound 0.0316 µM
[4] = second compound 0.0316 µM, first compound 0.1 µM
[5] = second compound 0.0316 µM, first compound 0.316 µM
[6] = second compound 0.0316 µM, first compound 1 µM
[7] = second compound 0.1 µM, first compound 0.00316 µM
[8] = second compound 0.1 µM, first compound 0.01 µM
[9] = second compound 0.1 µM, first compound 0.0316 µM
[10] = second compound 0.1 µM, first compound 0.1 µM
[11] = second compound 0.1 µM, first compound 0.316 µM
[12] = second compound 0.1 µM, first compound 1 µM
[13] = second compound 0.316 µM, first compound 0.00316 µM
[14] = second compound 0.316 µM, first compound 0.01 µM
[15] = second compound 0.316 µM, first compound 0.0316 µM
[16] = second compound 0.316 µM, first compound 0.1 µM
[17] = second compound 0.316 µM, first compound 0.316 µM
[18] = second compound 0.316 µM, first compound 1 µM
[19] = second compound 1 µM, first compound 0.00316 µM
[20] = second compound 1 µM, first compound 0.01 µM
[21] = second compound 1 µM, first compound 0.0316 µM
[22] = second compound 1 µM, first compound 0.1 µM
[23] = second compound 1 µM, first compound 0.316 µM
[24] = second compound 1 µM, first compound 1 µM
[25] = second compound 3.16 µM, first compound 0.00316 µM
[26] = second compound 3.16 µM, first compound 0.01 µM
[27] = second compound 3.16 µM, first compound 0.0316 µM
[28] = second compound 3.16 µM, first compound 0.1 µM
[29] = second compound 3.16 µM, first compound 0.316 µM
[30] = second compound 3.16 µM, first compound 1 µM
[31] = second compound 10 µM, first compound 0.00316 µM
[32] = second compound 10 µM, first compound 0.01 µM
[33] = second compound 10 µM, first compound 0.0316 µM
[34] = second compound 10 µM, first compound 0.1 µM
[35] = second compound 10 µM, first compound 0.316 µM
[36] = second compound 10 µM, first compound 1 µM
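Note: compound exposure lasted seven days after spheroids formed for three days.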
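Throughout, for viability, T/C: 100% = DMSO vehicle control wells.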

IC50 (second compound 0.0316 µM): 871 nM | IC50 (second compound 0.1 µM): 647 nM | IC50 (second compound 0.316 µM): 402 nM | IC50 (second compound 1 µM): 373 nM | IC50 (second compound 3.16 µM): 242 nM | IC50 (second compound 10 µM): 372 nM
SMILES: CCN1CCN(Cc2ccc(Nc3ncc(F)c(-c4cc(F)c5nc(C)n(C(C)C)c5c4)n3)nc2)CC1 + Cc1c(S(C)(=O)=O)c(-c2cc(F)cc(N3CCN(c4ccc(NS(=O)(=O)c5ccc(NC(CCN6CCC(C(=O)OCCCP(=O)(O)O)CC6)CSc6ccccc6)c(S(=O)(=O)C(F)(F)F)c5)cc4)CC3)c2)c(-c2ccc(Cl)cc2)n1C(C)C
viability, T/C [1]: 97.4% | viability, T/C [2]: 105% | viability, T/C [3]: 87% | viability, T/C [4]: 87.2% | viability, T/C [5]: 70% | viability, T/C [6]: 46.8% | viability, T/C [7]: 113% | viability, T/C [8]: 85.7% | viability, T/C [9]: 90.4% | viability, T/C [10]: 74% | viability, T/C [11]: 63.6% | viability, T/C [12]: 41% | viability, T/C [13]: 94.1% | viability, T/C [14]: 80.5% | viability, T/C [15]: 77.8% | viability, T/C [16]: 62.1% | viability, T/C [17]: 66.6% | viability, T/C [18]: 26.7% | viability, T/C [19]: 87.2% | viability, T/C [20]: 88% | viability, T/C [21]: 67.8% | viability, T/C [22]: 88.2% | viability, T/C [23]: 54% | viability, T/C [24]: 25.9% | viability, T/C [25]: 75.8% | viability, T/C [26]: 80.5% | viability, T/C [27]: 73.5% | viability, T/C [28]: 63.7% | viability, T/C [29]: 46% | viability, T/C [30]: 24.9% | viability, T/C [31]: 82.7% | viability, T/C [32]: 90.5% | viability, T/C [33]: 96.3% | viability, T/C [34]: 78.7% | viability, T/C [35]: 54.6% | viability, T/C [36]: 25.7%

IC50 (second compound 0.0316 µM): 19.5 nM | IC50 (second compound 0.1 µM): 26.3 nM | IC50 (second compound 0.316 µM): 15.5 nM | IC50 (second compound 1 µM): 17.8 nM | IC50 (second compound 3.16 µM): 14.4 nM | IC50 (second compound 10 µM): 24.2 nM
SMILES: NC(=O)C(=Cn1cnc(-c2cc(C(F)(F)F)cc(C(F)(F)F)c2)n1)c1cncnc1 + Cc1c(S(C)(=O)=O)c(-c2cc(F)cc(N3CCN(c4ccc(NS(=O)(=O)c5ccc(NC(CCN6CCC(C(=O)OCCCP(=O)(O)O)CC6)CSc6ccccc6)c(S(=O)(=O)C(F)(F)F)c5)cc4)CC3)c2)c(-c2ccc(Cl)cc2)n1C(C)C
viability, T/C (second compound 0.0316 µM, first compound 0.000949 µM): 105% | viability, T/C (second compound 0.0316 µM, first compound 0.003 µM): 73.8% | viability, T/C (second compound 0.0316 µM, first compound 0.00949 µM): 71.2% | viability, T/C (second compound 0.0316 µM, first compound 0.03 µM): 47.7% | viability, T/C (second compound 0.0316 µM, first compound 0.0949 µM): 3.73% | viability, T/C (second compound 0.0316 µM, first compound 0.3 µM): 1.57% | viability, T/C (second compound 0.1 µM, first compound 0.000949 µM): 98.8% | viability, T/C (second compound 0.1 µM, first compound 0.003 µM): 94.7% | viability, T/C (second compound 0.1 µM, first compound 0.00949 µM): 72.6% | viability, T/C (second compound 0.1 µM, first compound 0.03 µM): 53.8% | viability, T/C (second compound 0.1 µM, first compound 0.0949 µM): 4.66% | viability, T/C (second compound 0.1 µM, first compound 0.3 µM): 0.74% | viability, T/C (second compound 0.316 µM, first compound 0.000949 µM): 99.6% | viability, T/C (second compound 0.316 µM, first compound 0.003 µM): 114% | viability, T/C (second compound 0.316 µM, first compound 0.00949 µM): 59.6% | viability, T/C (second compound 0.316 µM, first compound 0.03 µM): 31.9% | viability, T/C (second compound 0.316 µM, first compound 0.0949 µM): 1.71% | viability, T/C (second compound 0.316 µM, first compound 0.3 µM): 0.54% | viability, T/C (second compound 1 µM, first compound 0.000949 µM): 89.3% | viability, T/C (second compound 1 µM, first compound 0.003 µM): 88.8% | viability, T/C (second compound 1 µM, first compound 0.00949 µM): 69.8% | viability, T/C (second compound 1 µM, first compound 0.03 µM): 33.5% | viability, T/C (second compound 1 µM, first compound 0.0949 µM): 5.89% | viability, T/C (second compound 1 µM, first compound 0.3 µM): 0.53% | viability, T/C (second compound 3.16 µM, first compound 0.000949 µM): 74.7% | viability, T/C (second compound 3.16 µM, first compound 0.003 µM): 76.1% | viability, T/C (second compound 3.16 µM, first compound 0.00949 µM): 59.4% | viability, T/C (second compound 3.16 µM, first compound 0.03 µM): 31.6% | viability, T/C (second compound 3.16 µM, first compound 0.0949 µM): 2.57% | viability, T/C (second compound 3.16 µM, first compound 0.3 µM): 0.29% | viability, T/C (second compound 10 µM, first compound 0.000949 µM): 105% | viability, T/C (second compound 10 µM, first compound 0.003 µM): 118% | viability, T/C (second compound 10 µM, first compound 0.00949 µM): 84.4% | viability, T/C (second compound 10 µM, first compound 0.03 µM): 44.5% | viability, T/C (second compound 10 µM, first compound 0.0949 µM): 1.64% | viability, T/C (second compound 10 µM, first compound 0.3 µM): 0.33%

IC50 (second compound 0.0316 µM): 419 nM | IC50 (second compound 0.1 µM): 344 nM | IC50 (second compound 0.316 µM): 291 nM | IC50 (second compound 1 µM): 443 nM | IC50 (second compound 3.16 µM): 322 nM | IC50 (second compound 10 µM): 319 nM
SMILES: O=C(c1ccc(F)c(F)c1Nc1ccc(I)cc1F)N1CC(O)([C@@H]2CCCCN2)C1 + Cc1c(S(C)(=O)=O)c(-c2cc(F)cc(N3CCN(c4ccc(NS(=O)(=O)c5ccc(NC(CCN6CCC(C(=O)OCCCP(=O)(O)O)CC6)CSc6ccccc6)c(S(=O)(=O)C(F)(F)F)c5)cc4)CC3)c2)c(-c2ccc(Cl)cc2)n1C(C)C
viability, T/C [1]: 98.2% | viability, T/C [2]: 96.5% | viability, T/C [3]: 99.2% | viability, T/C [4]: 97.7% | viability, T/C [5]: 60.5% | viability, T/C [6]: 17.5% | viability, T/C [7]: 85.2% | viability, T/C [8]: 81.6% | viability, T/C [9]: 72.2% | viability, T/C [10]: 111% | viability, T/C [11]: 52.9% | viability, T/C [12]: 13.2% | viability, T/C [13]: 85% | viability, T/C [14]: 76.7% | viability, T/C [15]: 75.3% | viability, T/C [16]: 103% | viability, T/C [17]: 47.4% | viability, T/C [18]: 10.6% | viability, T/C [19]: 76.7% | viability, T/C [20]: 85.5% | viability, T/C [21]: 72.6% | viability, T/C [22]: 73% | viability, T/C [23]: 67.3% | viability, T/C [24]: 11.2% | viability, T/C [25]: 74.9% | viability, T/C [26]: 72.7% | viability, T/C [27]: 73% | viability, T/C [28]: 79.4% | viability, T/C [29]: 50.7% | viability, T/C [30]: 9.52% | viability, T/C [31]: 76.9% | viability, T/C [32]: 92% | viability, T/C [33]: 73% | viability, T/C [34]: 97.9% | viability, T/C [35]: 50.2% | viability, T/C [36]: 16.8%
